{
  "source": "paper PMC11628845",
  "about": "(Acta Pharmaceutica Sinica. B, 2024)",
  "key": {"[1]": {"tested_on": "HBV", "experiment": "HBVcircle transfection system in Huh7 cells", "assay_type": "cell-based, Hepatitis B virus", "details": "0.1-200 μmol/L, 48 h"}, "[2]": {"tested_on": "wild-type HBV (genotype C)", "experiment": "microbe, parasite or virus in culture", "assay_type": "cell-based", "details": "Hepatitis B virus"}, "[3]": {"tested_on": "ETV-resistant HBV (rtL180M + A181C + M204V)", "experiment": "microbe, parasite or virus in culture", "assay_type": "cell-based", "details": "Hepatitis B virus"}, "[4]": {"tested_on": "wild type HBV (pHBV 1.3)", "experiment": "microbe, parasite or virus in culture", "assay_type": "cell-based", "details": "read-out: HBeAg IC50"}, "[5]": {"target": "Cp149 protein (Hepatitis B virus genotype D subtype ayw, UniProt P03146)", "sequence (P03146 1-149)": "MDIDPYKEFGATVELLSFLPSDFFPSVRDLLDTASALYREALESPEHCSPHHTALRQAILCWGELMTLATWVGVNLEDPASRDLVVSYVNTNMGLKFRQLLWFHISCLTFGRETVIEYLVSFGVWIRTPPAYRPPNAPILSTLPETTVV", "experiment": "biochemical", "details": "read-out: inhibition of capsid formation"}, "[6]": {"experiment": "in vivo", "set-up": "species or system ICR mouse"}, "[7]": {"tested_on": "HBV genotypes A‒D", "experiment": "Antiviral activity across HBV genotypes A‒D in Huh7", "assay_type": "cell-based", "details": "Hepatitis B virus, Huh-7, read-out: IC50 across HBV genotypes"}, "[8]": {"tested_on": "HBV (pHBV1.3)"}, "[9]": {"tested_on": "HBV", "experiment": "HBV infection of HepG2-NTCP cells, secreted HBeAg by ELISA"}, "[10]": {"tested_on": "HBV", "details": "cited from earlier work"}, "[11]": {"target": "HBcAg (Hepatitis B virus genotype D subtype ayw, UniProt P03146)", "sequence (P03146 whole entry)": "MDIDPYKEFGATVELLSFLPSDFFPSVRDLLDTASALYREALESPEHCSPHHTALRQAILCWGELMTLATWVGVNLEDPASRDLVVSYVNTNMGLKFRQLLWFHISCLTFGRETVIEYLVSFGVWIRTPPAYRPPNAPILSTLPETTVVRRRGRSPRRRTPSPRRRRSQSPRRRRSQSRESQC", "assay_type": "cell-based"}, "[12]": {"details": "Huh-7, read-out: HBeAg IC50, rt180M181C204V"}},
  "note": "Where two headings read alike, the source gives them in different places.",
  "data": [
    {"compound": "COc1ccc(Cc2nc(NC(=O)C34CC5CC(CC(C5)C3)C4)n(C)c2Cc2ccc(OC)c(OC)c2)cc1", "note": "[11a, (Z)-N-(5-(3,4-Dimethoxybenzyl)-4-(4-methoxybenzyl)-1-methyl-1,3-dihydro-2H-imidazole-2-ylidene)adamantane-1-carboxamide]", "values": [
      {"measurement": "HBsAg and cccDNA", "setting": "[1]", "result": "not HBsAg and cccDNA"},
      {"measurement": "secreted HBeAg", "setting": "[1]", "result": "inhibits HBeAg in a concentration-dependent manner"},
      {"measurement": "IC50", "setting": "[2]; Huh-7, read-out: HBeAg IC50", "result": 12900, "unit": "nM"},
      {"measurement": "IC50", "setting": "[2]; Huh-7, wild-type cells", "result": 750, "unit": "nM"},
      {"measurement": "IC50", "setting": "[3]; Huh-7, ETV-resistant cells", "result": 13700, "unit": "nM"},
      {"measurement": "IC50", "setting": "[3]; [12]", "result": 45700, "unit": "nM"},
      {"measurement": "IC50", "setting": "[4]; Hepatitis B virus", "result": 15200, "unit": "nM"},
      {"measurement": "inhibition at 40 µM", "setting": "[5]", "result": 53, "unit": "%"},
      {"measurement": "half-life", "setting": "[6]; both, ICR, mouse, in vivo", "result": "3 to 6.2", "unit": "h"},
      {"measurement": "bioavailability", "setting": "[6]; both, ICR, mouse, in vivo, po, 10 mg/kg", "result": "24.8 to 39.2", "unit": "%"},
      {"measurement": "plasma clearance", "setting": "[6]; po, range over female and male mice", "result": "202 to 322", "unit": "mL/min/kg"},
      {"measurement": "IC50", "setting": "[7]", "result": "100 to 1970", "unit": "nM"},
      {"measurement": "HBV DNA vs control group", "setting": "[8]; 50 mpk b.i.d., intraperitoneal", "result": "no statistical difference"},
      {"measurement": "serum HBeAg and HBsAg levels", "setting": "[8]; 50 or 100 mpk b.i.d.", "result": "None of these treatments altered serum HBeAg and HBsAg levels"},
      {"measurement": "reduction of HBV DNA in plasma", "setting": "[8]; 100 mpk b.i.d., intraperitoneal, Day 5", "result": 4, "unit": "fold"},
      {"measurement": "antiviral effect of combination with TDF", "setting": "[8]; TDF 2 mpk q.d. and 11a 100 mpk b.i.d.", "result": "weak synergistic antiviral effects"},
      {"measurement": "serum ALT and AST levels or body weight", "setting": "[8]; control vs experimental groups", "result": "no significant changes"},
      {"measurement": "H&E staining in liver tissues", "setting": "[8]; mouse, in vivo", "result": "no obvious pathological changes"},
      {"measurement": "levels of HBcAg in liver, immunofluorescence", "setting": "[8]; mouse, in vivo", "result": "significantly reduced the levels of HBcAg"},
      {"measurement": "IC50", "setting": "[9]; Hepatitis B virus, read-out: half inhibitory concentration on HBeAg", "result": 23700, "unit": "nM"},
      {"measurement": "inhibition of HBeAg levels in combination with IFNa2", "setting": "[9]; IFNa2 1000 IU/mL plus 11a 10 and 30 μmol/L, HepG2-NTCP", "result": "significant synergistic inhibition"}
    ]},
    {"compound": "COc1ccccc1/C(Br)=C(\\NC(=O)c1ccc([N+](=O)[O-])cc1)C(=O)N1CCCCC1", "note": "[AT-130]", "values": [
      {"measurement": "IC50", "setting": "[10]", "result": 127, "unit": "nM"}
    ]},
    {"compound": "COC(=O)C1=C(C)NC(c2ncc(F)cc2F)=N[C@H]1c1ccc(F)cc1Cl", "note": "[Bay 41-4109]", "values": [
      {"measurement": "IC50", "setting": "[10]; anti-HBV potency", "result": 50, "unit": "nM"}
    ]},
    {"compound": "C=C1[C@H](CO)[C@@H](O)C[C@@H]1n1cnc2c(=O)[nH]c(N)nc21", "note": "[ETV, entecavir, reference compound]", "values": [
      {"measurement": "IC50", "setting": "[2]; Huh-7, read-out: HBeAg IC50", "result": "> 100000", "unit": "nM"},
      {"measurement": "IC50", "setting": "[3]; [12]", "result": "> 100000", "unit": "nM"}
    ]},
    {"compound": "CCOC(=O)C1=C(CN2CCO[C@H](CCC(=O)O)C2)NC(c2nccs2)=N[C@H]1c1ccc(F)cc1Br", "note": "[HEC72702, 3-((R)-4-(((R)-6-(2-Bromo-4-fluorophenyl)-5-(ethoxycarbonyl)-2-(thiazol-2-yl)-3,6-dihydropyrimidin-4-yl)methyl)morpholin-2-yl)propanoic acid]", "values": [
      {"measurement": "IC50", "setting": "[10]", "result": 39, "unit": "nM"}
    ]},
    {"compound": "C[C@H](NS(=O)(=O)c1cc(C(=O)Nc2ccc(F)c(C#N)c2)n(C)c1)C(F)(F)F", "note": "[JNJ-379]", "values": [
      {"measurement": "IC50", "setting": "[10]; no reference printed directly", "result": 69, "unit": "nM"}
    ]},
    {"compound": "Cc1cc(NC(=O)c2cccc(S(=O)(=O)N[C@H]3CCOC3)c2)ccc1F", "note": "[JNJ-632]", "values": [
      {"measurement": "IC50", "setting": "[10]", "result": 120, "unit": "nM"}
    ]},
    {"compound": "COC(=O)C1=C(CN2CCOCC2)NC(c2nccs2)=N[C@@H]1c1ccc(F)cc1Br", "note": "[NVR-010-001-E2]", "values": [
      {"measurement": "IC50", "setting": "[10]", "result": 11, "unit": "nM"}
    ]},
    {"compound": "CCOC(=O)C1=C(CN2CCN3C(=O)N(CC(C)(C)C(=O)O)C[C@@H]3C2)N=C(c2nccs2)N[C@H]1c1cccc(F)c1C", "note": "[RG7907, linvencorvir]", "values": [
      {"measurement": "IC50", "setting": "[10]", "result": 6, "unit": "nM"}
    ]},
    {"compound": "O=C(NCc1cnc(C(F)(F)F)s1)c1ccc2c(c1)NC(=O)c1ccccc1S2(=O)=O", "note": "[vebicorvir]", "values": [
      {"measurement": "IC50", "setting": "[10]", "result": 173, "unit": "nM"}
    ]},
    {"compound": "GLS4", "values": [
      {"measurement": "concentration needed to significantly inhibit HBcAg's expression", "setting": "[11]", "result": "above 10 μmol/L"},
      {"measurement": "decrease of HBcAg expression", "setting": "[11]", "result": 56.4, "unit": "%"},
      {"measurement": "IC50", "setting": "[4]; Wide type (pHBV 1.3)", "result": 252, "unit": "nM"},
      {"measurement": "IC50", "setting": "[10]", "result": 12, "unit": "nM"}
    ]}
  ]
}
